Article PMC4326489, “Efficacy and pharmacokinetic evaluation of a novel anti-malarial compound (NP046) in a mouse model” (Malaria Journal, 2015)
Converted amounts (≈) assume the structure as drawn. “And” between values parts separate entries of the source, which are not always exact repeats. Identical values can stand only once. Like-named read-outs stand apart in the source and are kept apart here.

Key:
[1] = Metabolic stability in human liver microsomes; assay type: in vitro ADME; settings: 0-60 minutes, read-out: in vitro intrinsic clearance
Description: (§1) Metabolism is an enzymatic process in which a drug is chemically modified into polar metabolites that can be more readily excreted from the body. Metabolism occurs mainly in the liver, and the intestine. The metabolic stability of NP046 was determined in human and mouse liver microsomes using a multiple-time-point method at 0, 5, 10, 30, and 60 minutes [for the methodology see Additional file 5].
(§2) Summary of the assay method for the determination of microsomal stability:
(§3) The assay method was adopted from Obach, 1999, Giuliano et al., 2005, and Naritomi et al., 2001, with a slight modification.
(§4) The liver microsome (human and mouse) was thawed at 37 °C, and diluted to 0.4 mg/ml in a preheated (at 37 °C) 0.1 M phosphate buffer.
(§5) The primary stock solutions (10 mM) of the controls and test compounds were diluted as follows: first in DMSO to obtain 400 µM solutions followed by dilution in phosphate buffer to 40 µM, and were vortex mixed well by vortexing at each step of dilution.
(§6) A reaction premix (in triplicate for each control and test compound) were prepared by mixing 15 µl of the 40 µM solution with 530 µl of 0.4 mg/ml microsome mixture in a premix plate, and mixed carefully using a plate shaker. […]
(§7) The intrinsic clearance (ml/min/kg) was calculated using the equation (Obach et al., 1997): […]

[2] = Analyte stock solution stability; assay type: physicochemical; settings: 100 days; for Analyte stock solution stability, % Reference: vs fresh
Description: NP046 was stable for 100 days in stock solutions of methanol and acetonitrile when stored at room temperature and -20 °C. It was stable in whole blood on bench for 3.3 hours while waiting for extraction, and was stable after three freeze-thaw cycles too.

[3] = test system: Plasmodium berghei transfected with green fluorescence protein (strain ANKA); assay: In vivo efficacy (four-day dosing) in P. berghei-infected mice, % parasitaemia by flow cytometry; set-up: species or system Plasmodium berghei in male C57BL/6 mice; settings: day five post-infection; for % parasitaemia: once a day for four days, mean ± S.E.M; for % growth inhibition: relative to negative control (placebo)
Description: Plasmodium berghei transfected with green fluorescence protein (strain ANKA), a chloroquine-sensitive strain, was stored in liquid nitrogen. Parasites were thawed and administered intraperitoneally (IP) to infect two donor mice a week before the experiment commenced. […] Finally, each of the test animals received 200 μl of the P. berghei-infected RBCs (1×10^7 per 200 μl PBS) IP to infect them with the parasite. There were three animals per dose group, and each of them received 200 μl of NP046 in water orally and intravenously (volume adjusted relative to the weight of mouse) at their respective dose concentration as shown below:
The test compound was administered to the animals once a day for four days. […] Blood samples were collected via tail bleeding in tubes containing PBS on day 5, and % parasitaemia was determined with FACSCalibur™ using the software CellQuestPro [5].
Finally, the percentage parasite growth inhibition was calculated using the following equation [6]: [drawing 1]

[4] = Metabolic stability in mouse liver microsomes; assay type: in vitro ADME; settings: 0-60 minutes, read-out: in vitro intrinsic clearance
Description: as §1, §2, §3, §4, §5, §6, §7

[5] = In vivo PK evaluation in mice (blood, LC-MS/MS, non-compartmental analysis); set-up: species or system male C57BL/6 mice; settings: for concentration at 7 h: read-out: mean blood concentration at seven hours after dosing
Description: The in vivo PK properties of NP046 were evaluated following oral (50 and 10 mg/kg) and IV (5 mg/kg) administration of the compound in water to male C57BL/6 mice (n = 5). Blood samples were collected via tail bleeding in heparinized tubes at predetermined sampling times on ice, and were stored at -80°C until analysis. Despite the critical problem of obtaining numerous blood samples from a mouse without compromising the health/safety of the animal, blood samples at all the sampling times, i.e. 0.17, 0.5, 1, 3, 5 and 7 hours for the IV dose groups, and 0.5, 1, 3, 5 and 7 hours for the oral dose groups were collected from each mouse. The extraction volume during sample analysis was targeted at the lowest possible volume (20 μl) thereby minimizing the total volume of blood harvested from the animal.
Blood samples collected from mice following the administration of NP046 together with the calibration standards (STDs) and quality controls (QCs) of NP046 were analyzed using a validated LC-MS/MS assay (for details of the LC-MS/MS assay see Additional file 2). Concentration vs time profiles were constructed and using Summit PK software the data were processed to obtain the PK properties of NP046.
Blood samples collected from mice after the administration of NP046, together with the calibration standards (STDs) and quality controls (QCs), were analysed using a fully validated LC-MS/MS assay. NP046 concentrations were detectable for up to seven hours after oral and IV dosing. Concentration vs time profiles (Figures 3 and 4) were constructed and the data processed with Summit PK software (non-compartmental analysis) to obtain the PK parameters as presented in Table 2. The LC-MS/MS method performed very well; NP046 concentrations in the mice were detectable for up to seven hours after both 50 and 10 mg/kg oral dosing, with mean concentrations of 0.05 and 0.02 μM, respectively.

[6] = Kinetic solubility (HPLC-UV); assay type: physicochemical; settings: aqueous buffer, kinetic from dmso stock, PBS pH 2.0
Description: The concentration of the test compound (x) in PBS samples was calculated from the peak area (y) in its UV chromatogram by extrapolation from the three-point calibration line, using the equation y = ax + b; where a = slope and b = intercept.
Summary of the assay method for the determination kinetic solubility:
PBS was prepared and its pH adjusted to 2.0 and 7.4
primary stock solutions of the test compounds and controls (reserpine and hydrocortisone) in DMSO at 10 mM were prepared
Samples were briefly vortex mixed
samples were incubated for 2 hours while mixing in an incubator with orbital shaker at 200 rpm
samples were centrifuged at 3500 rpm for 15 minutes at 22 °C
the supernatant of the standards were transferred from the clear 96-well plate into an opaque, round bottom 96-well analysis plate, while the aqueous samples were filtered using a vacuum manifold through a multi-screen filter plate (MSRLN 0450, 0.4 µM), into the same opaque, round bottom 96-well plate
samples were analysed using HPLC-UV method by injecting the STDs in duplicate, and the samples in singlet.

[7] = male, C57BL/6, whole blood, IV 5 mg/kg, mouse
[8] = male, C57BL/6, whole blood, oral 10 mg/kg, mouse
[9] = male, C57BL/6, whole blood, oral 50 mg/kg, mouse

Oc1cc(CCCc2ccc(F)cc2)ccc1CN1CCCCC1 [NP046, 5-(3-(4-fluorophenyl)propyl)-2-(piperidin-1-ylmethyl)phenol]
microsomal CLint at 0.99 µM [1]: 119 µL/min/mg
Analyte stock solution stability, % Reference ([2]; in acetonitrile, room temperature): 102.1%
Analyte stock solution stability, % Reference ([2]; in acetonitrile, ~ 5°C): 83.1%
Analyte stock solution stability, % Reference ([2]; in acetonitrile, ~ -20°C): 99.9%
Analyte stock solution stability, % Reference ([2]; in methanol, room temperature): 93.7%
Analyte stock solution stability, % Reference ([2]; in methanol, ~ 5°C): 87.8%
Analyte stock solution stability, % Reference ([2]; in methanol, ~ -20°C): 94.3%
stability in stock solutions ([2]; methanol and acetonitrile, room temperature and -20°C): stable
% parasitaemia ([3]; 1 mg/kg IV): 10.2 ± 1.75%
% growth inhibition ([3]; 5 mg/kg IV): 87.4%
% parasitaemia ([3]; 5 mg/kg IV): 4.05 ± 0.12%
% growth inhibition ([3]; 10 mg/kg oral): 24.6%
% parasitaemia ([3]; 10 mg/kg oral): 24.3 ± 0.80%
% growth inhibition ([3]; 50 mg/kg oral): 47.3%
% parasitaemia ([3]; 50 mg/kg oral): 16.7 ± 3.34%
microsomal CLint at 0.99 µM [4]: 657 µL/min/mg
AUC 0 - ∞ ([5]; IV 5 mg/kg, mouse blood): 248 ± 12.6 µmol·min/L
half-life ([5]; male, C57BL/6, whole blood, other: oral and IV (range over both), range over oral (50 and 10 mg/kg) and IV (5 mg/kg) groups, mouse, read-out: mean half-life): 3.1 to 4.4 h
Vd [5, 7]: 16.9 ± 1.3 L/kg
half-life ([5]; male, C57BL/6, whole blood, IV 5 mg/kg, mouse blood, mean ± S.E.M, n = 5, read-out: Apparent t 1/2 (converted)): 3.2 ± 0.35 h
clearance ([5]; male, C57BL/6, whole blood, IV 5 mg/kg, mouse, read-out: Blood CL total): 3.73 ± 0.18 L/h/kg
concentration at 7 h [5, 7]: 0.14 µM
Tmax [5, 8]: 0.8 h
bioavailability [5, 8]: 6 ± 2.9%
Cmax ([5]; male, C57BL/6, whole blood, oral 10 mg/kg, mouse blood): 0.13 ± 0.06 µM
half-life ([5]; male, C57BL/6, whole blood, oral 10 mg/kg, mouse blood, mean ± S.E.M, n = 5, read-out: Apparent t 1/2 (converted)): 3.1 ± 0.46 h
concentration at 7 h [5, 8]: 0.02 µM
Tmax [5, 9]: 0.5 h
bioavailability [5, 9]: 3.2 ± 0.47%
Cmax ([5]; male, C57BL/6, whole blood, oral 50 mg/kg, mouse blood): 0.47 ± 0.1 µM
half-life ([5]; male, C57BL/6, whole blood, oral 50 mg/kg, mouse blood, mean ± S.E.M, n = 5, read-out: Apparent t 1/2 (converted)): 4.4 ± 0.6 h
concentration at 7 h [5, 9]: 0.05 µM
AUC 0 - ∞ ([5]; oral 10 mg/kg, mouse blood, 10 mg/kg): 30 µmol·min/L and 30 ± 14.7 µmol·min/L
AUC 0 - ∞ ([5]; oral 50 mg/kg, mouse blood, 50 mg/kg): 80 µmol·min/L and 80 ± 8.8 µmol·min/L
solubility at 2 h [6]: 185 µM (≈ 60.7 µg/mL)
